Laboratory results published in paper PMC7278776, “Multidrug Resistance Modulation Activity of Silybin Derivatives and Their Anti-Inflammatory Potential” (Antioxidants, 2020).
Where two headings read alike, the source gives them in different places. Marks after values point to notes of the source that are not given here.

Key:
[1] = system: ABCD1; assay: ABCD1 mRNA expression (real-time PCR); type: cell-based, human; settings: A2780/DOX
Description: (§1) The A2780/DOX cell line was seeded into 5 cm Petri dishes with DMEM medium at 1 × 10^5 cell/mL. After 24 h, the dishes were washed with PBS and new DMEM medium supplemented with doxorubicin (at concentration equal to IC25) and samples (10 µM) were added. After 48 h of treatment, the cells were washed with PBS and harvested using the standard trypsin-EDTA procedure. The harvested cells were centrifuged (3200× g; 10 min, 4 °C). The supernatant was discarded, and the pellets were washed with 1.5 mL of cooled PBS (5400× g; 10 min, 4 °C). The washing step was repeated with 1 mL of PBS and the cells were centrifuged again (10,000× g; 3 min, 4 °C). Afterwards, the pellets were resuspended in 1 mL of Trizol (Invitrogen, Carlsbad, CA, USA) and transferred into pre-cooled RNase-free microfuge tubes. The samples were stored at −80 °C.
(§2) A Quant-iT RiboGreen RNA Assay Kit (Invitrogen) was used to determine the RNA concentration using the Infinite M200 plate reader (Tecan, Männedor, Switzerland). The cDNA was prepared from 0.5 µg of total RNA using a RevertAid First Strand Synthesis cDNA Kit (MBI Fermentas, Vilnius, Lithuania). The amplification of the ubiquitin C gene fragment was used to determine the quality of cDNA.
(§3) The experiment was performed using the ViiA7 Real-Time polymerase chain reaction (PCR) System (Life Technologies, Camarillo, CA, USA) with a 384-well block. Before quantitative real-time PCR, the master mix was prepared by mixing 2 µL of 8 × diluted cDNA, 1.75 µL of RNase free water, 1 µL of 5 × HotFIREPol Probe quantitative PCR Mix Plus (Solis Biodyne, Tartu, Estonia) and 0.25 µL of specific 20 × TaqMan Gene Expression Assay (Life Technologies), giving 5 µL of final reaction volume. Cycling parameters were: initial hold at 50 °C for 2 min and denaturation at 95 °C for 10 min, followed by 45 cycles consisting of denaturation at 95 °C for 15 s and annealing/extension at 60 °C for 1 min. After each extension phase, the fluorescence values were acquired. Duplicate samples were used for measurement and samples with a standard deviation of duplicates > 1.0 cycle threshold (Ct) were re-analyzed. The real time PCR procedure was maintained according to MIQE (Minimum information for publication of quantitative real-time PCR experiments) guidelines. The software REST 2009 (Qiagen, Hilden, Germany) served to compare relative transcript levels of genes in the cell line.

[2] = system: TNF-α; assay: TNF-α release by LPS-induced macrophages (ELISA); type: cell-based, mouse; settings: for IC50: Mus musculus
Description: To determine the level of inflammatory cytokine TNF-α, macrophages were pre-cultivated with the tested compounds (12.5–50 µM) for 24 h. Thereafter, the plates were washed with PBS and new MEM medium enriched with LPS (1 µg/mL) was added to the wells. After 2 h of incubation, the plates were centrifuged (1000× g; 10 min, 4 °C) and then the medium was removed and frozen to −80 °C. Prior to the detection, the samples were diluted in ELISA diluent in a 1:10 ratio. […]

[3] = system: ABCA5; assay: ABCA5 mRNA expression (real-time PCR); type: cell-based, human; settings: A2780/DOX, 10 µM combined with doxorubicin at IC25, 48 h
Description: as §1, §2, §3

[4] = system: ABCC10; assay: ABCC10 mRNA expression (real-time PCR); type: cell-based, human; settings: A2780/DOX
Description: as §1, with “After 24 h, the dishes were washed with PBS and new DMEM medium supplemented with doxorubicin (at concentration equal to IC25) and samples (10 µM) were added.” left out
as §2, §3

[5] = system: IL-6; assay: IL-6 release by LPS-induced macrophages (ELISA); type: cell-based, mouse; settings: for IL-6 (pg/mL): untreated LPS control 1148 ± 35
Description: To determine the level of inflammatory cytokine IL-6, macrophages were cultivated with LPS (1 µg/mL) and the tested compounds (7–50 µM) for 6 h. After incubation, the plates were centrifuged (1000× g; 10 min, 4 °C) and then the medium was removed and frozen to −80 °C. Prior to the detection, the samples were diluted in ELISA diluent in a 1:10 ratio. Production of the cytokine was determined by uncoated ELISA performed according to the manufacturer’s instructions.

[6] = target: T1, human recombinant P-gp (Homo sapiens, UniProt P08183); assay: biochemical
T1 construct: purchased Promega
Description: The procedure and the dilution of the reagents were performed according to the manufacturer’s instructions. Briefly, the human recombinant P-gp-containing membrane (25 µg) was mixed in a 96-well plate with P-gp–Glo™ Assay buffer (control), verapamil (P-gp substrate, positive control, 0.2 mM), Na3VO4 (P-gp inhibitor, negative control, 0.1 mM), ATP standards (to construct the calibration curve, 0.375–3 mM) or samples (2.5 µL, in the concentration range 0.7–20 mM). After that, MgATP (5 mM) was added to total volume of 50 µL to each well to initiate the ATPase reaction. The plate was incubated for 1 h at 37 °C. Thereafter, the reaction was stopped by adding 50 µL of ATP detection reagent and incubated at room temperature for 20 min. The remaining non-metabolized ATP was detected as a luciferase-generated signal.
Using linear regression, the standard ATP curve was designed, and by subsequent interpolation of relative luminescence (RLU) of standards, the amount of ATP consumed in the samples was recalculated according to the manufacturer’s guidelines.

[7] = system: ABCB6; assay: ABCB6 mRNA expression (real-time PCR); type: cell-based, human; settings: A2780/DOX, 10 µM combined with doxorubicin at IC25, 48 h
Description: as §1, with “After 24 h, the dishes were washed with PBS and new DMEM medium supplemented with doxorubicin (at concentration equal to IC25) and samples (10 µM) were added.” left out
as §2, §3

[8] = system: ABCG1; assay: ABCG1 mRNA expression (real-time PCR); type: cell-based, human; settings: A2780/DOX, 10 µM combined with doxorubicin at IC25, 48 h
Description: as §1, §2, §3

[9] = system: ABCB9; assay: ABCB9 mRNA expression (real-time PCR); type: cell-based, human; settings: A2780/DOX, 10 µM combined with doxorubicin at IC25, 48 h
Description: as §1, §2, §3

[10] = system: ABCB10; assay: ABCB10 mRNA expression (real-time PCR); type: cell-based, human; settings: A2780/DOX
Description: as §1, with “After 24 h, the dishes were washed with PBS and new DMEM medium supplemented with doxorubicin (at concentration equal to IC25) and samples (10 µM) were added.” left out
as §2, §3

[11] = 10 µM combined with doxorubicin at IC25, 48 h
[12] = 10 µM, 48 h, without doxorubicin
[13] = RAW264.7, read-out: TNF-α, concentration necessary to halve the release (IC50)
[14] = compound 12.5 µM, untreated LPS control 2954 ± 92
[15] = compound 25 µM, untreated LPS control 2954 ± 92
[16] = compound 50 µM, untreated LPS control 2954 ± 92

T1 sequence (P08183 whole entry): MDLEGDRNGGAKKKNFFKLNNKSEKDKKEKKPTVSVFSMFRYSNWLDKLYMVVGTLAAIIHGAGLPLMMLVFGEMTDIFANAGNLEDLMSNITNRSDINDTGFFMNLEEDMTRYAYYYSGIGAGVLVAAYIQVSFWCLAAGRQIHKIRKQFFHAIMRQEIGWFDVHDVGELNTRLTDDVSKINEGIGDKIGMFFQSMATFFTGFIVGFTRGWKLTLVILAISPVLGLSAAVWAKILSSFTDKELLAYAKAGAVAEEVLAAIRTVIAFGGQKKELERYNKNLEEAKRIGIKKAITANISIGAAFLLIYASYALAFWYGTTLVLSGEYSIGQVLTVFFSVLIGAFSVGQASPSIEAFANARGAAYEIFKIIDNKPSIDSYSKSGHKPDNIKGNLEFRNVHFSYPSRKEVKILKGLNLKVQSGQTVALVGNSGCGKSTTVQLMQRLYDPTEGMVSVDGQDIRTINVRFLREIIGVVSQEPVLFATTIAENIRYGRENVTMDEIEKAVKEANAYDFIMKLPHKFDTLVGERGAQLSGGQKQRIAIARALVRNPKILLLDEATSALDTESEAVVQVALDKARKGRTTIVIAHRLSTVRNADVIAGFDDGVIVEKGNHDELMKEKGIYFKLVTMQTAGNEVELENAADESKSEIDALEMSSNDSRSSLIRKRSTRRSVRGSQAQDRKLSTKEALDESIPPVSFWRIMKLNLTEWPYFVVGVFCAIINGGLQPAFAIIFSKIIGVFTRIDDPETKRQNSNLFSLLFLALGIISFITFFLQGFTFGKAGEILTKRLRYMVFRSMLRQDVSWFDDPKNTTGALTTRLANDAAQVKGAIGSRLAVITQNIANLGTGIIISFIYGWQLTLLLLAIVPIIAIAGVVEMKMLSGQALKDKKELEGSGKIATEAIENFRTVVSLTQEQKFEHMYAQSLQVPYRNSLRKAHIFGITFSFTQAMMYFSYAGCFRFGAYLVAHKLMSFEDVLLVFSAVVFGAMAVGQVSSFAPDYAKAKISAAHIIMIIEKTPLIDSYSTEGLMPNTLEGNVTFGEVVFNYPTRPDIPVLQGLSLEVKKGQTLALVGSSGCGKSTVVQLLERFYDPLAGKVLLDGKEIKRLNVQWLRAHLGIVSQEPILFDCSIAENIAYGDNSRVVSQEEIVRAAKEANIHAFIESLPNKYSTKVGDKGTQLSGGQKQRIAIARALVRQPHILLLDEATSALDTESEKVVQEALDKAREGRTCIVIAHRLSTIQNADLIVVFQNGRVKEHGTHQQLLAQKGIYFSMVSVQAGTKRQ

Structure (SMILES)	ABCD1 Expression Difference [1, 11]	ABCD1 Expression Difference [1, 12]	IC50 [2, 13]	TNF-α (pg/mL) [2, 14]	TNF-α (pg/mL) [2, 15]	TNF-α (pg/mL) [2, 16]	ABCA5 Expression Difference [3]	ABCC10 Expression Difference [4, 11]	ABCC10 Expression Difference [4, 12]	IL-6 (pg/mL) ([5]; compound 7 µM)	IL-6 (pg/mL) ([5]; compound 15 µM)	IL-6 (pg/mL) ([5]; compound 50 µM)	IC50 [6]	ABCB6 Expression Difference [7]	ABCG1 Expression Difference [8]	ABCB9 Expression Difference [9]	ABCB10 Expression Difference [10, 11]	ABCB10 Expression Difference [10, 12]	also measured
COc1cc([C@H]2Oc3cc(-c4oc5cc(O)cc(O)c5c(=O)c4O)ccc3O[C@@H]2CO)ccc1O [Dehydrosilybin A, 2,3-dehydrosilybin A]	1.435	1.063	20.7 ± 0.4 µM	2338 ± 63 ^ab pg/mL	777 ± 28 ^a pg/mL	0 ± 0 ^a pg/mL	1.223	1.214	1.200	292 ± 15 ^a pg/mL	79 ± 8 ^a pg/mL	0 ± 0 ^a pg/mL	60.7 ± 10 µM	1.149	2.714	1.109	1.020	1.236	decrease of release of TNF-α ([2]; compound 25 µM, from 2954 pg/mL to 777 pg/mL): ~4 times; TNF-α ([2]; compound 25 µM, untreated LPS control 2954 ± 92, listed as dehydrosilybin A): 777 pg/mL; TNF-α (pg/mL) ([2]; compound 50 µM, untreated LPS control 2954 ± 92, listed as dehydrosilybin A): under the detection limit of the ELISA assay; IL-6 (pg/mL) ([5]; compound 50 µM, listed as dehydrosilybin A): under the detection limit of the ELISA assay; IL-6 modulation effect higher in comparison with its diastereomeric mixture ([5]; vs dehydrosilybin AB): approximately 70%
COc1cc(C2Oc3cc(-c4oc5cc(O)cc(O)c5c(=O)c4O)ccc3OC2CO)ccc1O (stereo not shown) [Dehydrosilybin AB, 2,3-dehydrosilybin]	1.412		26.7 ± 0.1 µM	2617 ± 118 ^b pg/mL	2364 ± 108 ^c pg/mL	0 ± 0 ^a pg/mL	1.254	1.323	1.471	997 ± 41 ^d pg/mL	441 ± 19 ^d pg/mL	0 ± 0 ^a pg/mL	21.1 ± 0.6 µM	1.262	1.826	1.149	1.119	1.589	TNF-α (pg/mL) ([2]; compound 50 µM, untreated LPS control 2954 ± 92, listed as dehydrosilybin AB): under the detection limit of the ELISA assay; IL-6 (pg/mL) ([5]; compound 50 µM, listed as dehydrosilybin AB): under the detection limit of the ELISA assay
COc1cc([C@@H]2Oc3cc(-c4oc5cc(O)cc(O)c5c(=O)c4O)ccc3O[C@H]2CO)ccc1O [Dehydrosilybin B, 2,3-dehydrosilybin B]	1.784		44.2 ± 0.3 µM	2528 ± 171 ^b pg/mL	2774 ± 84 ^d pg/mL	982 ± 25 ^c pg/mL	1.707	1.618	1.107	582 ± 19 ^c pg/mL	301 ± 9 ^c pg/mL	122 ± 3 ^b,c pg/mL	40.7 ± 3.8 µM	1.343	2.931	1.218	1.221	1.186	
COc1cc([C@H]2Oc3cc([C@H]4Oc5cc(O)cc(O)c5C(=O)[C@@H]4O)ccc3O[C@@H]2CO)ccc1O [Silybin A, silybin A]		1.187		2092 ± 48 ^a pg/mL	1476 ± 39 ^b pg/mL	415 ± 4 ^b pg/mL	2.427	1.812	1.260	422 ± 42 ^b pg/mL	271 ± 15 ^c pg/mL	125 ± 16 ^c pg/mL	43.1 ± 6.4 µM	1.665		1.586	1.060	1.136	IC50 ([2]; RAW264.7, RAW 264.7, 24 h pre-cultivation, then LPS 2 h, read-out: TNF-α, concentration necessary to halve the release (IC50)): 29.9 ± 1.35 µM; IC50 ([5]; Mus musculus, RAW264.7, RAW 264.7, LPS + compound 6 h, read-out: IL-6, concentration necessary to halve the release (IC50)): 8.4 ± 0.3 µM
